Laboratory results: patent US5523305A, “Tachykinin receptor antagonists, isoquinolones and their production” (Takeda Chemical Industries, Ltd., priority 1992, dated 1996)
pIC50: −log10 of the molar value.

Molecular target: T1, substance P receptor from rat forebrain (Rattus norvegicus, UniProt P14600)
T1 construct: The receptor was prepared from the brain of Wistar rats (male, 8 weeks old, Charles-River); from tissue; host or cells: forebrain membranes of male Wistar rats
Experiment: Radioligand receptor binding inhibitory assay using receptor from rat forebrain (125I-BHSP)
Design: species or system rat (Wistar)
Settings: 25° C., 30 minutes, pH 7.4
Method: (1) Radioligand receptor binding inhibitory assay using receptor from rat forebrain The method of R. Qirion and […] (Neuropeptide 4, 325 (1984)) was modified and used. The receptor was prepared from the brain of Wistar rats (male, 8 weeks old, Charles-River). The rat was sacrificed by decapitation and the forebrain was isolated. The forebrain was homogenized in 30 ml/rat of 150 mM Tris-HCl buffer (pH 7.4) containing 120 mM sodium chloride and 5 mM potassium chloride using a Polytron homogenizer (Kinematika, Germany) and centrifuged at 40,000×G for 20 minutes. The pellet was suspended in 30 ml of 50 mM Tris-HCl buffer (pH 7.4) containing 300 mM potassium chloride and 10 mM ethylenediaminetetracetic acid and stirred gently with ice-cooling for 30 minutes. This suspension was centrifuged at 40,000×G for 20 minutes and the pellet was washed with 30 ml of 50 mM Tris-HCl buffer (pH 7.4). The receptor specimen thus obtained was preserved frozen (-80° C.). The above specimen was suspended in a reaction buffer (50 mM Tris-HCl buffer (pH 7.4), 0.02% bovine serum albumin, 1 mM phenylmethylsulfonyl fluoride, 2 μg/ml chymostatin, 40 μg/ml bacitracin, 3 mM manganese chloride) at a protein concentration of 1.5 mg/ml and a 100 μl portion of the suspension was used in the reaction. […] The amount of nonspecific binding was determined by adding substance P at a final concentration of 2×10^-6 M. After the reaction, using a cell harvester (290PHD, Cambridge Technology, Inc., England), rapid filtration was carried out through a glass filter (GF/B, Whatman, U.S.A.) to stop the reaction. After washings three times with 250 μl of 50 mM Tris-HCl buffer (pH 7.4) containing 0.02% bovine serum albumin, the radioactivity remaining on the filter was measured with a gamma counter. Before use, the filter was immersed in 0.1% polyethyleneimine for 24 hours and air-dried.

T1 sequence (P14600 whole entry): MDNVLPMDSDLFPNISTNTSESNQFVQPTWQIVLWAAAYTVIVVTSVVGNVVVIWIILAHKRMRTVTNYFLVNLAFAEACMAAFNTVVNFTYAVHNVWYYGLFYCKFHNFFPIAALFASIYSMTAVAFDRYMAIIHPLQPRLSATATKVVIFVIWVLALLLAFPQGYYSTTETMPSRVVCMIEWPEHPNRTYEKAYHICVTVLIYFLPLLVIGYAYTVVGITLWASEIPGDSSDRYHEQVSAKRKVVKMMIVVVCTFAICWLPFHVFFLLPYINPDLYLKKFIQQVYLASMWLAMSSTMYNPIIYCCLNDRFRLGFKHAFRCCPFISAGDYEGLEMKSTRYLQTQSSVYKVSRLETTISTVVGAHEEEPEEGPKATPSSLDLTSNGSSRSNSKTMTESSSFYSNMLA

SMILES | pIC50
CCn1c(NC(=O)NCc2ccccc2)c(-c2ccccc2)c2cc(C)c(C)cc2c1=O [Example 19, N-Benzyl-N'-(2-ethyl-1,2-dihydro-6,7-dimethyl-1-oxo-4-phenylisoquinolin-3-yl)urea] | 7.49
Cc1ccc(CNC(=O)Nc2c(-c3ccccc3)c3cc(C)c(C)cc3c(=O)n2C)cc1 [Example 16, N-(1,2-Dihydro-2,6,7-trimethyl-1-oxo-4-phenylisoquinolin-3-yl)-N'-(4-methylbenzyl)urea] | 7.96
COc1ccccc1-c1c(NC(=O)NCc2ccccc2)n(C)c(=O)c2ccccc12 [Example 24, N-Benzyl-N'-[1,2-dihydro-4-(2-methoxyphenyl)-2-methyl-1-oxoisoquinolin-3-yl]urea] | 7.00

Other lines, results leading:

pIC50 | SMILES
7.19 | Cc1cc2c(-c3ccccc3)c(NC(=O)NCc3ccco3)n(C)c(=O)c2cc1C [Example 12, N-(2-Furfuryl)-N'-(1,2-dihydro-2,6,7-trimethyl-1-oxo-4-phenylisoquinolin-3-yl)urea]
7.38 | Cc1cc2c(-c3ccccc3)c(NC(=O)NCc3ccccn3)n(C)c(=O)c2cc1C [Example 13, N-(1,2-Dihydro-2,6,7-trimethyl-1-oxo-4-phenylisoquinolin-3-yl)-N'-(2-pyridinemethyl)urea]
7.72 | Cc1cc2c(-c3ccccc3)c(NC(=O)NCc3ccccc3)n(C)c(=O)c2cc1C [Example 2, N-Benzyl-N'-(1,2-dihydro-2,6,7-trimethyl-1-oxo-4-phenylisoquinolin-3-yl)ure]
7.85 | Cc1cc2c(-c3ccccc3)c(NC(=O)NCc3ccccc3C)n(C)c(=O)c2cc1C [Example 18, N-(1,2-Dihydro-2,6,7-trimethyl-1-oxo-4-phenylisoquinolin-3-yl)-N'-(2-methylbenzyl)urea]
7.25 | Cc1cc2c(-c3ccccc3)c(NC(=O)NCc3cccs3)n(C)c(=O)c2cc1C [Example 14, N-(1,2-Dihydro-2,6,7-trimethyl-1-oxo-4-Phenylisoquinolin-3-yl)-N'-(2-thiophenemethyl)urea]
7.12 | Cc1cc2c(-c3ccccc3)c(NC(=O)NCC3CCCCC3)n(C)c(=O)c2cc1C [Example 15, N-Cyclohexylmethyl-N'-(1,2-dihydro-2,6,7-trimethyl-1-oxo-4-phenylisoquinolin-3-yl)urea]

Same assay, conditions: read-out: concentration necessary to cause 50% inhibition [IC50], 25° C., 30 minutes, pH 7.4

pIC50 | SMILES
7.74 | Cc1cccc(CNC(=O)Nc2c(-c3ccccc3)c3cc(C)c(C)cc3c(=O)n2C)c1 [Example 17, N-(1,2-Dihydro-2,6,7-trimethyl-1-oxo-4-phenylisoquinolin-3-yl)-N'-(3-methylbenzyl)urea]

Molecular target: T2, substance P receptor from human lymphoblast cells (IM-9) (Homo sapiens, UniProt P25103)
T2 construct: The receptor was prepared from human lymphoblast cells (IM-9); endogenous in cells; host or cells: IM-9 human lymphoblast cells
Experiment: Radioligand receptor binding inhibitory assay using receptor from human lymphoblast cells (IM-9) (125I-BHSP)
Settings: human lymphoblast IM-9 cell receptor, 25° C., 30 minutes, pH 7.4
Method: (2) Radioligand receptor binding inhibitory assay using receptor from human lymphoblast cells (IM-9)
The method of A. Margaret et al. [Molecular Pharmacology 42, 458 (1992)] was modified and used. The receptor was prepared from human lymphoblast cells (IM-9). IM-9 cells were grown in 175 cm^2 tissue culture flasks (100 ml×10) at a density approximately 2×10^5 /ml of RPMI 1640 with L-glutamine, 10% (V/V) heat inactivated fetal calf serum, penicillin (100 u/ml), and streptomycin (100 μg/ml) at 37° C. in 5%CO2 /95% air for 3 days. IM-9 cells were obtained by centrifugation at 500×g for 5 minutes at 5° C. The pellet obtained was washed once with phosphate buffer (Flow Laboratories, CAT. No. 28-103-05), homogenized using Polytron homogenizer(Kinematika, Germany) in 30 ml of 50 mM Tris-HCl buffer containing 120 mM NaCl, 5 mM KCl, 2 μg/ml phenylmethyl sufonyl fluoride, and 1 mM ethylenediamine tetra-acetic acid, and then centrifuged at 40,000×g for 20 minutes. The residue was washed twice with 30 ml of buffer described above, and preserved frozen (-80° C.).
The above specimen was suspended in a reaction buffer (50 mM Tris-HCl buffer (pH 7.4), 0.02% bovine serum albumin, 1 mM phenylmethylsulfonyl fluoride, 2 μg/ml chymostatin, 40 μg/ml bacitracin, 3 mM manganese chloride) at a protein concentration of 1.5 mg/ml and a 100 μl portion of the suspension was used in the reaction. After addition of the sample and 125I-BHSP (0.46 KBq), the reaction was conducted in 0.2 ml of reaction buffer at 25° C. for 30 minutes. The amount of nonspecific binding was determined by adding substance P at a final concentration of 2×10^-6 M. After the reaction, using a cell harvester (290PHD, Cambridge Technology, Inc., England), rapid filtration was carried out through a glass filter (GF/B, Whatman, U.S.A.) to stop the reaction. After washing three times with 250 μl of […] buffer (pH 7.4) containing 0.02% bovine serum albumin, the radioactivity remaining on the filter was measured with a gamma counter. Before use, the filter was immersed in 0.1% polyethyleneimine for 24 hours and air-dried.

T2 sequence (P25103 whole entry): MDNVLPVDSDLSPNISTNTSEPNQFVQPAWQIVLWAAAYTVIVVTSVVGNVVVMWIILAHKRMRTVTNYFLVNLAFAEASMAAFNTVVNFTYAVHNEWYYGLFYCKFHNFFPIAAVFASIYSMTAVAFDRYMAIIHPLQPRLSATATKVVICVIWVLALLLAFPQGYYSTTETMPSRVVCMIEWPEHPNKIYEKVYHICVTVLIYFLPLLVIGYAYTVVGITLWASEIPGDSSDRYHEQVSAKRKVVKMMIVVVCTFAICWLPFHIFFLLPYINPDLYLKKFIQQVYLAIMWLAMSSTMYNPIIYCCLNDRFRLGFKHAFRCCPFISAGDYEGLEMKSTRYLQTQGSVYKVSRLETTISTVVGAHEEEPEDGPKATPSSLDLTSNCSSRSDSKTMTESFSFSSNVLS

pIC50 | SMILES
7.12 | Cc1cc2c(-c3ccccc3)c(NC(=O)NCc3ccccc3Cl)n(C)c(=O)c2cc1C [Example 42, N-(2-Chlorobenzyl)-N'-(1,2-dihydro-2,6,7-trimethyl-1-oxo-4-phenylisoquinolin-3-yl)urea]

Same assay, conditions: read-out: concentration necessary to cause 50% inhibition [IC50], human lymphoblast IM-9 cell receptor, 25° C., 30 minutes, pH 7.4

SMILES | pIC50
Cc1cc2c(-c3ccccc3)c(NC(=O)N(C)Cc3ccccc3)n(C)c(=O)c2cc1C [Example 1, N-Benzyl-N'-(1,2-dihydro-2,6,7-trimethyl-1-oxo-4-phenylisoquinolin-3-yl)-N-methylurea] | 7.80
CCN(Cc1ccccc1)C(=O)Nc1c(-c2ccccc2)c2cc(C)c(C)cc2c(=O)n1C [Example 53, N-Benzyl-N-ethyl-N'-(1,2-dihydro-2,6,7-trimethyl-1-oxo-4-phenylisoquinolin-3-yl)urea] | 7.18

Now from value to compound:

pIC50 | SMILES
8.38 | Cc1cc2c(-c3ccccc3)c(NC(=O)N(C)Cc3ccccc3Cl)n(C)c(=O)c2cc1C [Example 52]
7.64 | COc1ccccc1CN(C)C(=O)Nc1c(-c2ccccc2)c2cc(C)c(C)cc2c(=O)n1C [Example 3, N-(1,2-Dihydro-2,6,7-trimethyl-1-oxo-4-phenylisoquinolin-3-yl)-N'-(2-methoxybenzyl)-N'-methylurea]
